Test results from ChEMBL document CHEMBL1156113, “Synthesis of new sugar derivatives and evaluation of their antibacterial activities against Mycobacterium tuberculosis” (Bioorg Med Chem Lett, 2009).
Converted amounts (≈) assume the structure as drawn.

Experiments:
[1] = microbe, parasite or virus in culture; format: functional, Mycobacterium bovis BCG str. Tokyo 172; details: Mycobacterium tuberculosis variant bovis BCG
Description: (§1) Antibacterial activity against Mycobacterium bovis BCG str. Tokyo 172 by broth dilution method

[2] = test system: Mycolicibacterium smegmatis; assay: Antibacterial activity against Mycobacterium smegmatis by broth dilution method; format: functional
[3] = test system: Mycobacterium tuberculosis; assay: Antituberculosis activity against Mycobacterium tuberculosis H37Rv by broth dilution method; format: functional
Mycobacterium avium [4] = assay: Antibacterial activity against Mycobacterium avium SmO by broth dilution method; format: functional
Mycobacterium avium [5] = assay: Antibacterial activity against Mycobacterium avium 724S by broth dilution method; format: functional
Staphylococcus aureus [6] = assay: Antibacterial activity against Staphylococcus aureus by broth dilution method; format: functional
Escherichia coli [7] = assay: Antibacterial activity against Escherichia coli by broth dilution method; format: functional
[8] = test system: Mycobacterium tuberculosis; assay: Antimycobacterial activity against drug-susceptive Mycobacterium tuberculosis isolate A-3-9 by agar proportion method; format: functional
[9] = test system: Mycobacterium tuberculosis; assay: Antimycobacterial activity against drug-susceptive Mycobacterium tuberculosis isolate A-3-22 by agar proportion method; format: functional
[10] = test system: Mycobacterium tuberculosis; assay: Antimycobacterial activity against drug-susceptive Mycobacterium tuberculosis isolate A-1-1 by agar proportion method; format: functional
[11] = test system: Mycobacterium tuberculosis; assay: Antimycobacterial activity against drug-susceptive Mycobacterium tuberculosis isolate A-3-15 by agar proportion method; format: functional
[12] = test system: Mycobacterium tuberculosis; assay: Antimycobacterial activity against drug-susceptive Mycobacterium tuberculosis isolate A-3-1 by agar proportion method; format: functional
[13] = test system: Mycobacterium tuberculosis; assay: Antimycobacterial activity against drug-susceptive Mycobacterium tuberculosis isolate A-1-2 by agar proportion method; format: functional
[14] = test system: Mycobacterium tuberculosis; assay: Antimycobacterial activity against drug-susceptive Mycobacterium tuberculosis isolate A-3-13 by agar proportion method; format: functional
[15] = test system: Mycobacterium tuberculosis; assay: Antimycobacterial activity against drug-susceptive Mycobacterium tuberculosis isolate A-3-12 by agar proportion method; format: functional
[16] = test system: Mycobacterium tuberculosis; assay: Antimycobacterial activity against drug-susceptive Mycobacterium tuberculosis isolate A-3-6 by agar proportion method; format: functional
[17] = test system: Mycobacterium tuberculosis; assay: Antimycobacterial activity against drug-susceptive Mycobacterium tuberculosis isolate A-3-11 by agar proportion method; format: functional
[18] = Selectivity for Mycobacterium tuberculosis H37Rv over human MRC5 cells; parameters: reference not given here
[19] = Selectivity for Mycobacterium tuberculosis H37Rv over human THP1 cells; parameters: species or system THP-1; reference not given here
[20] = test system: Mycobacterium tuberculosis; assay: Antimycobacterial activity against drug-susceptive Mycobacterium tuberculosis isolate A-3-5 by agar proportion method; format: functional
[21] = test system: Mycobacterium tuberculosis; assay: Antimycobacterial activity against drug-susceptive Mycobacterium tuberculosis isolate A-3-20 by agar proportion method; format: functional
[22] = test system: Mycobacterium tuberculosis; assay: Antimycobacterial activity against drug-susceptive Mycobacterium tuberculosis isolate A-3-19 by agar proportion method; format: functional
[23] = test system: Mycobacterium tuberculosis; assay: Antimycobacterial activity against drug-susceptive Mycobacterium tuberculosis isolate A-3-2 by agar proportion method; format: functional
[24] = Selectivity for Mycobacterium tuberculosis H37Rv over human A549 cells; parameters: reference not given here
[25] = test system: Mycobacterium tuberculosis; assay: Antimycobacterial activity against drug-susceptive Mycobacterium tuberculosis isolate A-1-3 by agar proportion method; format: functional
[26] = test system: Mycobacterium tuberculosis; assay: Antimycobacterial activity against drug-susceptive Mycobacterium tuberculosis isolate A-3-16 by agar proportion method; format: functional
[27] = test system: Mycobacterium tuberculosis; assay: Antimycobacterial activity against drug-susceptive Mycobacterium tuberculosis isolate A-2-5 by agar proportion method; format: functional
[28] = test system: Mycobacterium tuberculosis; assay: Antimycobacterial activity against drug-susceptive Mycobacterium tuberculosis isolate A-3-17 by agar proportion method; format: functional
[29] = test system: Mycobacterium tuberculosis; assay: Antimycobacterial activity against drug-susceptive Mycobacterium tuberculosis isolate A-3-21 by agar proportion method; format: functional
Mycobacterium avium [30] = details: 724S
Staphylococcus aureus [31] = test system: Staphylococcus aureus
[32] = test system: Mycobacterium tuberculosis; details: H37Rv
Mycobacterium avium [33] = details: SmO
[34] = test system: Mycolicibacterium smegmatis
[35] = test system: Mycobacterium bovis BCG str. Tokyo 172
Description: as §1

Escherichia coli [36] = test system: Escherichia coli

Compound | MIC [1] [µg/mL] | MIC [2] [µg/mL] | MIC [3] [µg/mL] | MIC (Mycobacterium avium [4]) [µg/mL] | MIC (Mycobacterium avium [5]) [µg/mL] | MIC (Staphylococcus aureus [6]) [µg/mL] | MIC (Escherichia coli [7]) [µg/mL] | Ratio [18] | Ratio [19] | Ratio [24] | further results
CC(=O)N[C@@H]1[C@@H](O)[C@H](O)[C@@H](CSC(=S)N(C)C)O[C@H]1SC(=S)N(C)C | > 100 | > 100 | 25 (≈ 58.5 µM) | > 100 | > 100 | > 100 | > 100 |  |  |  | 
CC(=O)N[C@@H]1[C@@H](OC(C)=O)[C@H](OC(C)=O)[C@@H](COC(C)=O)O[C@H]1SC(=S)N(C)C | > 100 | > 100 | > 100 | > 100 | > 100 | > 100 | > 100 |  |  |  | 
CC(=O)N[C@@H]1[C@@H](O)[C@H](O)[C@@H](CO)O[C@H]1SC(=S)N(C)C | 31.3 (≈ 96.5 µM) | > 100 | 25 (≈ 77.1 µM) | > 100 | > 100 | > 100 | > 100 | 28 | 242 | 188 | MIC [8]: 6.25 µg/mL (≈ 19.3 µM); MIC [9]: 6.25 µg/mL (≈ 19.3 µM); MIC [10]: 6.25 µg/mL (≈ 19.3 µM); MIC [11]: 6.25 µg/mL (≈ 19.3 µM); MIC [12]: 6.25 µg/mL (≈ 19.3 µM); MIC [13]: 6.25 µg/mL (≈ 19.3 µM); MIC [14]: 6.25 µg/mL (≈ 19.3 µM); MIC [15]: 6.25 µg/mL (≈ 19.3 µM); MIC [16]: 6.25 µg/mL (≈ 19.3 µM); MIC [17]: 6.25 µg/mL (≈ 19.3 µM); MIC [20]: 6.25 µg/mL (≈ 19.3 µM); MIC [21]: 6.25 µg/mL (≈ 19.3 µM); MIC [22]: 6.25 µg/mL (≈ 19.3 µM); MIC [23]: 6.25 µg/mL (≈ 19.3 µM); MIC [25]: 6.25 µg/mL (≈ 19.3 µM); MIC [26]: 6.25 µg/mL (≈ 19.3 µM); MIC [27]: 6.25 µg/mL (≈ 19.3 µM); MIC [28]: 12.5 µg/mL (≈ 38.5 µM); MIC [29]: 6.25 µg/mL (≈ 19.3 µM)
CC(=O)N[C@H]1[C@H](OC(C)=O)O[C@H](COC(C)=O)[C@@H](OC(C)=O)[C@@H]1OC(C)=O | > 100 | > 100 | > 100 |  |  |  |  |  |  |  | 
CC(=O)N[C@@H]1[C@@H](O)[C@@H](O)[C@@H](CO)O[C@H]1SC(=S)N(C)C | 25 (≈ 77.1 µM) | > 100 | 12.5 (≈ 38.5 µM) | > 100 | > 100 | > 100 | > 100 |  |  |  | 
CC(=O)N[C@H]1[C@@H](O)[C@H](O)[C@@H](CO)O[C@@H]1SC(=S)N(C)C | > 100 | > 100 | > 100 | > 100 | > 100 | > 100 | > 100 |  |  |  | 
NCC[C@H](O)C(=O)N[C@@H]1C[C@H](N)[C@@H](O[C@H]2O[C@H](CN)[C@@H](O)[C@H](O)[C@H]2O)[C@H](O)[C@H]1O[C@H]1O[C@H](CO)[C@@H](O)[C@H](N)[C@H]1O [AMIKACIN] | 0.78 (≈ 1.33 µM) | 1.25 (≈ 2.13 µM) | 1.75 (≈ 2.99 µM) | 1.56 (≈ 2.66 µM) | > 100 | 100 (≈ 171 µM) | 50 (≈ 85.4 µM) |  |  |  | 
Nc1ccc(C(=O)O)c(O)c1 [AMINOSALICYLIC ACID] | 50 (≈ 327 µM) | 1000 (≈ 6530 µM) | 0.16 (≈ 1.04 µM) | 100 (≈ 653 µM) | 100 (≈ 653 µM) | > 100 | > 100 |  |  |  | 
CNC.Cl [DIMETHYLAMINE HCL] | > 100 | > 100 | > 100 |  |  |  |  |  |  |  | 
CNC [DIMETHYLAMINE] | > 100 | > 100 | > 100 |  |  |  |  |  |  |  | 
CC[C@@H](CO)NCCN[C@@H](CC)CO [ETHAMBUTOL] | 1.5 (≈ 7.34 µM) | 12.5 (≈ 61.2 µM) | 2.5 (≈ 12.2 µM) | 1.56 (≈ 7.64 µM) | 3.13 (≈ 15.3 µM) | > 100 | > 100 | 111 | 916 | 1434 | 
NNC(=O)c1ccncc1 [ISONIAZID] | 0.04 (≈ 0.292 µM) | 6.25 (≈ 45.6 µM) | 0.04 (≈ 0.292 µM) | 3.13 (≈ 22.8 µM) | 50 (≈ 365 µM) | > 100 | > 100 | 7325 | 53613 | 77277 | 
NC[C@H]1O[C@H](O[C@H]2[C@H](O)[C@@H](O[C@H]3O[C@H](CO)[C@@H](O)[C@H](N)[C@H]3O)[C@H](N)C[C@@H]2N)[C@H](O)[C@@H](O)[C@@H]1O [KANAMYCIN] | 0.3 (≈ 0.619 µM) | 3.13 (≈ 6.46 µM) | 1.56 (≈ 3.22 µM) | 1.56 (≈ 3.22 µM) | > 100 | 12.5 (≈ 25.8 µM) | 12.5 (≈ 25.8 µM) |  |  |  | 
CO[C@H]1/C=C/O[C@@]2(C)Oc3c(C)c(O)c4c(O)c(c(/C=N/N5CCN(C)CC5)c(O)c4c3C2=O)NC(=O)/C(C)=C\C=C\[C@H](C)[C@H](O)[C@@H](C)[C@@H](O)[C@@H](C)[C@H](OC(C)=O)[C@@H]1C [RIFAMPIN] | 0.004 (≈ 0.00486 µM) | 1.56 (≈ 1.9 µM) | 0.004 (≈ 0.00486 µM) | 0.004 (≈ 0.00486 µM) | < 0.05 | 0.002 (≈ 0.00243 µM) | 50 (≈ 60.8 µM) | 16250 | 16256 | 44510 | 
CN(C)C(=S)[S-].[Na+] [SODIUM DIMETHYLCARBAMODITHIOATE] | 0.78 | > 100 | 0.78 |  |  | > 100 | > 100 | 14 | 88 | 318 | 
CN[C@@H]1[C@H](O[C@H]2[C@H](O[C@H]3[C@H](O)[C@@H](O)[C@H](N=C(N)N)[C@@H](O)[C@@H]3N=C(N)N)O[C@@H](C)[C@]2(O)C=O)O[C@@H](CO)[C@H](O)[C@H]1O [STREPTOMYCIN] | 0.2 (≈ 0.344 µM) | 0.39 (≈ 0.671 µM) | 0.39 (≈ 0.671 µM) | 0.39 (≈ 0.671 µM) | 0.39 (≈ 0.671 µM) | 50 (≈ 86 µM) | 50 (≈ 86 µM) | 4282 | 18367 | 32154 | 
GENTAMICIN |  |  |  |  |  |  |  |  |  |  | MIC (Mycobacterium avium [30]): 25 µg/mL; MIC (Staphylococcus aureus [31]): 25 µg/mL; MIC [32]: 3.13 µg/mL; MIC (Mycobacterium avium [33]): 1.56 µg/mL; MIC [34]: 1.56 µg/mL; MIC [35]: 1.56 µg/mL; MIC (Escherichia coli [36]): 6.25 µg/mL
